Results reported in patent US20150299659A1, “MUSCLE CELL PRODUCTION” (Monash University, priority 2014, published 2015).

What was measured:
Assay type in all cases: cell-based, human
hESC (HES3) = assay: RT-PCR and marker analysis of dorsal tissue and endoderm in differentiating hPSCs
Protocol: For cytospin preparations of FACS sorted populations, cells were spun onto glass slides using Cytospin 4 (Shandon, Thermofisher, Waltham, Mass.). Cells were then fixed with 100% cold methanol for 5 minutes and subsequently rehydrated in phosphate buffered solution (PBS) for 15-20 minutes. Cultured cells were fixed with 4% paraformaldehyde for 10 minutes at room temperature and permeabilized with 0.3% Triton X-100 in PBS for 30 minutes. A complete list of primary and fluorochrome-labelled secondary antibodies used in this study is provided in the Supporting Information (Table 1). Incubations with primary and subsequently secondary antibodies were performed in Incubation Buffer (0.1% BSA, 2% FBS, 0.1% Triton X-100 in PBS) for 40 minutes at 37° C. Image acquisition was performed on an inverted Nikon Eclipse Ti epifluorescence microscope with the appropriate filter sets using single channel acquisition on a Nikon Digital sight DS-U2 camera. Images were analyzed with Nikon NIS-Elements 3.2 software. All immunofluorescence images are representative of one individual experiment. […]
Total RNA was extracted using RNeasy Mini kit (Qiagen, Hilden, Germany), and DNAse I treatment (Qiagen) was performed to avoid genomic DNA contamination. […] The inventors optimized the PCR conditions and determined the linear amplification range for each primer by varying annealing temperature and cycle number. […]

hPSCs [1] = assay: FACS quantification of myogenic cell populations from differentiated hPSCs; conditions: for percentage of CXCR4+/C-MET+ and ACHR+ populations compared to CHIR+FGF2 cultures: single-agent conditions (CHIR only or FGF2 only)
Protocol: (§1) Experiments were performed using all four hPSC lines. When colony size reached >600 μm in diameter and colony density on the plate was approximately 30-40%, we induced differentiation of hPSC by switching the culture medium from mTESR1 to a chemically defined, serum-free medium DMEM-F12 supplemented with insulin-transferrin-selenium (ITS) (all from Sigma-Aldrich, St. Louis, Mo.). Starting at day 0 of differentiation, cells were cultured in the presence of 3 μM CHIR 99021 (Miltenyi Biotech, Auburn, Calif.) for 4 days. Culture medium was then replaced by ITS containing 20 ng/ml of FGF2 (Miltenyi Biotech) for a further 14 days. For each experimental control condition, hPSCs differentiation was induced as follows: 1) CHIR only: ITS medium containing 3 μM CHIR from days 0-4, followed by ITS medium only until day of analysis; and 2) FGF2 only: ITS medium only between days 0-4, followed by ITS medium containing 20 ng/ml FGF2 for 14 days. Medium was replaced daily until the day of the analysis.
(§2) Cells were dissociated with 0.05% trypsin or TrypLE Select (Invitrogen, Carlsbad, Calif.) to a single cell suspension and incubated with the appropriate fluorochrome-labelled antibodies (Table 1) at a concentration of 10^7 cells/ml for 30 minutes on ice. Indirect labelling of HNK and ACHR antibodies was done using goat anti-mouse Alexa Fluor 488 and goat anti-mouse PE (both from Molecular Probes, Invitrogen) as secondary antibodies. Labelled cells were sorted through a BD Influx (five lasers) flow sorter (BD Biosciences) according to the excitation requirements of the fluorochromes. Sorted populations were analyzed using FlowJo software (Tree Star Inc., Ashland, Oreg.).
Data were analyzed by two-way analysis of variance (ANOVA) followed by Bonferroni's post-test to calculate p values. Analyses were performed using statistical software (GraphPad Prism 5.04; GraphPad Software, San Diego, Calif.). Probability values <0.05 were considered statistically significant. Error bars in each figure represent the standard error of the mean of three or more individual experiments. For qPCR data, p values were calculated for changes in expression of markers over time compared to day 0. For quantitative analysis of FACS sorting data, the percentage of myogenic cells relative to the total number of cells were obtained for each experimental culture treatment, and p values were calculated for differences between the means of each experimental condition.

hPSCs [2] = assay: CHIR concentration optimisation for differentiation of hPSCs towards a myogenic phenotype
Protocol: as §1, with “Starting at day 0 of differentiation, cells were cultured in the presence of 3 μM CHIR 99021 (Miltenyi Biotech, Auburn, Calif.) for 4 days.” left out, “analysis. Human PSCs were first exposed to 3 μM CHIR for 4 days, and then the small molecule was replaced with 20 ng/ml of FGF2 for an additional 2 weeks (FIG. 2A). To optimize the differentiation of hPSCs towards a myogenic phenotype, different CHIR concentrations were tested. […] The FGF signaling pathway has been identified to regulate several developmental processes of muscle formation. […]” for “analysis.”

hPSCs [3] = assay: Immunocytochemical quantification of muscle cells in unsorted hPSC cultures; conditions: exposure to CHIR for up to 10 days
Protocol: as §1, with “Starting at day 0 of differentiation, cells were cultured in the presence of 3 μM CHIR 99021 (Miltenyi Biotech, Auburn, Calif.) for 4 days.” left out, “Medium was replaced daily until the day of the analysis.” left out
For cytospin preparations of FACS sorted populations, cells were spun onto glass slides using Cytospin 4 (Shandon, Thermofisher, Waltham, Mass.). […] Images were analyzed with Nikon NIS-Elements 3.2 software. […]
Following withdrawal of FGF2 and a further 17 days of culture in ITS medium alone areas with skeletal muscle cells were scored in treated culture dishes, prior to FACS analysis and identified by immunocytochemistry as PAX3+ and PAX7+ precursors (FIG. 2B) (Relaix et al (2005) Nature 435:948-953) and bipolar skeletal myocytes, positive for myogenin and sarcomeric myosin (MF20) (FIG. 2C).

hESC HES3 = assay: Immunocytochemistry of cytospin preparations of sorted cells
Protocol: as §2
For cytospin preparations of FACS sorted populations, cells were spun onto glass slides using Cytospin 4 (Shandon, Thermofisher, Waltham, Mass.). Cells were then fixed with 100% cold methanol for 5 minutes and subsequently rehydrated in phosphate buffered solution (PBS) for 15-20 minutes. Cultured cells were fixed with 4% paraformaldehyde for 10 minutes at room temperature and permeabilized with 0.3% Triton X-100 in PBS for 30 minutes. A complete list of primary and fluorochrome-labelled secondary antibodies used in this study is provided in the Supporting Information (Table 1). […] Images were analyzed with Nikon NIS-Elements 3.2 software. […]

Row | Molecule | expression of dorsal markers SOX10 and LMX1a (RT-PCR) (hESC (HES3); day 10 of hESC (HES3) differentiation) | generation of endoderm cells (hESC (HES3); lack of specific endodermal markers in the cultures) | myogenic induction of hPSCs (hPSCs [1]; CHIR only, 3 μM days 0-4, then ITS medium only) | percentage of CXCR4+/C-MET+ and ACHR+ populations compared to CHIR+FGF2 cultures (hPSCs [1]) | toxicity to differentiating hPSCs (hPSCs [2]; CHIR concentration >3 μM) | induction of myogenic phenotype (hPSCs [2]; CHIR doses of <3 μM) | muscle derivation after prolonged exposure (hPSCs [3]) | phenotype of sorted CXCR4+/C-MET− cells (hESC HES3) | phenotype of sorted CXCR4−/C-MET+ cells (hESC HES3) | cell fate of CXCR4+/C-MET− and CXCR4−/C-MET+ fractions compared to CHIR+FGF2 (hPSCs [1]; FGF2 only, absence of CHIR treatment)
1 | Cc1c[nH]c(-c2cnc(NCCNc3ccc(C#N)cn3)nc2-c2ccc(Cl)cc2Cl)n1 [CHIR, CHIR 99021] | expressed only in CHIR (GSK3β inhibitor) treated cells | not permissive for the generation of endoderm cells | sufficient for myogenic induction | Reduction in the percentage | High toxicity | inefficient induction | no muscle cells were identified | – | – | –
2 | FGF2: fibroblast growth factor, used at 20 ng/ml to expand the muscle precursor compartment | – | – | – | almost complete loss | – | – | – | complete switch towards SOX1 expression | PAX3+ and PAX7+ cells are not present | fundamental shift from a myogenic to a non-myogenic cell fate
